Key:
clinical [1] = settings: human, in vivo, iv, Vdss
clinical [2] = settings: human, in vivo, iv, CL
clinical [3] = settings: human, in vivo, iv
clinical [4] = settings: human, in vivo, iv, t1/2

SMILES: COC(=O)O[C@@]12CO[C@@H]1C[C@H](O)[C@@]1(C)C(=O)[C@H](OC(C)=O)C3=C(C)[C@@H](OC(=O)[C@H](O)[C@@H](NC(=O)c4ccccc4)c4ccccc4)C[C@@](O)([C@@H](OC(=O)c4ccccc4)[C@H]21)C3(C)C [BMS-188797]
- Vd (clinical [1]): 6.9 L/kg
- clearance (clinical [2]): 8.6 mL/min/kg
- MRT (clinical [3]): 13 h

SMILES: O=C(N[C@H](CO)[C@H](O)c1ccc([N+](=O)[O-])cc1)C(Cl)Cl [CHLORAMPHENICOL]
- clearance (clinical [2]): 2.4 mL/min/kg
- MRT (clinical [3]): 6.5 h
- half-life (clinical [4]): 4.6 h

SMILES: CN(C)CCC(c1ccc(Cl)cc1)c1ccccn1 (centres undefined) [CHLORPHENIRAMINE]
- Vd (clinical [1]): 3.3 L/kg
- clearance (clinical [2]): 2.5 mL/min/kg
- MRT (clinical [3]): 22 h

SMILES: CN(C)CCCC1(c2ccc(F)cc2)OCc2cc(C#N)ccc21 (centres undefined) [CITALOPRAM]
- clearance (clinical [2]): 4.3 mL/min/kg
- MRT (clinical [3]): 47 h
- half-life (clinical [4]): 33 h

SMILES: CN(C)CCCN1c2ccccc2CCc2ccc(Cl)cc21 [CLOMIPRAMINE]
- Vd (clinical [1]): 13 L/kg
- clearance (clinical [2]): 8.2 mL/min/kg
- MRT (clinical [3]): 26 h

SMILES: O=c1[nH]cnc2c1ncn2[C@H]1CC[C@@H](CO)O1 [DIDANOSINE]
- clearance (clinical [2]): 11 mL/min/kg
- MRT (clinical [3]): 1.2 h
- half-life (clinical [4]): 1.4 h

SMILES: C[C@H](CCc1ccccc1)NC[C@H](O)c1ccc(O)c(C(N)=O)c1 [DILEVALOL]
- clearance (clinical [2]): 29 mL/min/kg
- MRT (clinical [3]): 2.8 h
- half-life (clinical [4]): 3.3 h

SMILES: O=c1[nH]c2ccccc2n1CCCN1CCC(n2c(=O)[nH]c3cc(Cl)ccc32)CC1 [DOMPERIDONE]
- Vd (clinical [1]): 3.4 L/kg
- clearance (clinical [2]): 9.5 mL/min/kg
- MRT (clinical [3]): 6 h

SMILES: CCN(CC)C(=O)/C(C#N)=C/c1cc(O)c(O)c([N+](=O)[O-])c1 [ENTACAPONE]
- Vd (clinical [1]): 0.27 L/kg
- clearance (clinical [2]): 12 mL/min/kg
- MRT (clinical [3]): 0.38 h

SMILES: C[C@]12CC[C@@H]3c4ccc(O)cc4CC[C@H]3[C@@H]1CC[C@@H]2O [ESTRADIOL]
- clearance (clinical [2]): 30 mL/min/kg
- MRT (clinical [3]): 0.7 h
- half-life (clinical [4]): 1.7 h

SMILES: CCOC(=O)c1ncn2c1CN(C)C(=O)c1cc(F)ccc1-2 [FLUMAZENIL]
- clearance (clinical [2]): 16 mL/min/kg
- MRT (clinical [3]): 1 h
- half-life (clinical [4]): 0.78 h

SMILES: NCC1(CC(=O)O)CCCCC1 [GABAPENTIN]
- Vd (clinical [1]): 0.71 L/kg
- clearance (clinical [2]): 1.7 mL/min/kg
- MRT (clinical [3]): 7 h

SMILES: C[C@@H](O)[C@H]1C(=O)N2C(C(=O)O)=C(SCCN=CN)C[C@H]12 [IMIPENEM ANHYDROUS]
- clearance (clinical [2]): 3 mL/min/kg
- MRT (clinical [3]): 1.3 h
- half-life (clinical [4]): 0.95 h

SMILES: O=C1Nc2ccc(Cl)cc2C(c2ccccc2Cl)=NC1O (centres undefined) [LORAZEPAM]
- clearance (clinical [2]): 1 mL/min/kg
- MRT (clinical [3]): 22 h
- half-life (clinical [4]): 17 h

SMILES: CN(Cc1cnc2nc(N)nc(N)c2n1)c1ccc(C(=O)N[C@@H](CCC(=O)O)C(=O)O)cc1 [METHOTREXATE]
- Vd (clinical [1]): 0.43 L/kg
- clearance (clinical [2]): 2.1 mL/min/kg
- MRT (clinical [3]): 3.4 h

SMILES: Cc1ncc2n1-c1ccc(Cl)cc1C(c1ccccc1F)=NC2 [MIDAZOLAM]
- clearance (clinical [2]): 5.3 mL/min/kg
- MRT (clinical [3]): 3.5 h
- half-life (clinical [4]): 3.1 h

SMILES: CN1CCN2c3ncccc3Cc3ccccc3C2C1 (centres undefined) [MIRTAZAPINE]
- Vd (clinical [1]): 4.2 L/kg
- clearance (clinical [2]): 8 mL/min/kg
- MRT (clinical [3]): 8.8 h

SMILES: CCc1nn(CCCN2CCN(c3cccc(Cl)c3)CC2)c(=O)n1CCOc1ccccc1 [NEFAZODONE]
- clearance (clinical [2]): 7.5 mL/min/kg
- MRT (clinical [3]): 1.1 h
- half-life (clinical [4]): 1.2 h

SMILES: CN1CCC[C@H]1c1cccnc1 [NICOTINE]
- clearance (clinical [2]): 18 mL/min/kg
- MRT (clinical [3]): 2.4 h
- half-life (clinical [4]): 2 h

SMILES: CO[C@H]1/C=C/O[C@@]2(C)Oc3c(C)c(O)c4c(O)c(c(/C=N/N5CCN(C)CC5)c(O)c4c3C2=O)NC(=O)/C(C)=C\C=C\[C@H](C)[C@H](O)[C@@H](C)[C@@H](O)[C@@H](C)[C@H](OC(C)=O)[C@@H]1C [RIFAMPIN]
- Vd (clinical [1]): 0.97 L/kg
- clearance (clinical [2]): 3.5 mL/min/kg
- MRT (clinical [3]): 4.6 h

SMILES: C/C=C1\NC(=O)[C@H]2CSSCC/C=C/[C@H](CC(=O)N[C@H](C(C)C)C(=O)N2)OC(=O)[C@H](C(C)C)NC1=O [ROMIDEPSIN]
- clearance (clinical [2]): 7.4 mL/min/kg
- MRT (clinical [3]): 2.6 h
- half-life (clinical [4]): 11 h

SMILES: CN1C(C(=O)Nc2ccccn2)=C(O)c2sccc2S1(=O)=O [TENOXICAM]
- clearance (clinical [2]): 0.03 mL/min/kg
- MRT (clinical [3]): 92 h
- half-life (clinical [4]): 67 h

SMILES: COc1ccc(C(CN(C)C)C2(O)CCCCC2)cc1 (centres undefined) [VENLAFAXINE]
- clearance (clinical [2]): 14 mL/min/kg
- MRT (clinical [3]): 5.2 h
- half-life (clinical [4]): 5 h

Source: ChEMBL document CHEMBL1614632, “Trend analysis of a database of intravenous pharmacokinetic parameters in humans for 670 drug compounds” (Drug Metab Dispos, 2008)
